Results taken from the supplement of paper PMC10307832.

Key:
Assay in all cases: relative viability (nuclei count vs DMSO), 5 days (fraction); higher = more cells survive
[1] = compound: CCOC(=O)CCNc1cc(N2CCc3ccccc3CC2)nc(-c2ccccn2)n1 [GSK-J4] + O=C(c1cc(Cc2n[nH]c(=O)c3ccccc23)ccc1F)N1CCN(C(=O)C2CC2)CC1 [Olaparib] (partner 8 µM)
Outline: (§1)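 Values are medians from duplicate plates. Each reflects relative viability, defined as the nuclei count of treated wells over that of vehicle wells. Lung cancer cell lines in 1536-well plates were pin-tool dosed one day after seeding with one drug alone or with a fixed anchor-drug dose plus five library-drug doses (not always all listed) in √10 steps, then fixed, stained and imaged at 4× after 5 days.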

[2] = compound: CN1CCC(CC1)OC2=CC(=C(C=C2)NC3=NC=C4C(=N3)N(C(=O)N4C)C5CCCC5)OC [AZ3146] + CC(C)C[C@H](NC(=O)[C@H](Cc1ccccc1)NC(=O)c1cnccn1)B(O)O [Bortezomib] (partner 0.002 µM)
Outline: as §1

[3] = compound: CCOC(=O)CCNc1cc(N2CCc3ccccc3CC2)nc(-c2ccccn2)n1 [GSK-J4] + Cc1nc(NC(=O)N2CCC[C@H]2C(N)=O)sc1-c1ccnc(C(C)(C)C(F)(F)F)c1 [Alpelisib] (partner 2 µM)
Outline: as §1

[4] = compound: CN1CCC(CC1)OC2=CC(=C(C=C2)NC3=NC=C4C(=N3)N(C(=O)N4C)C5CCCC5)OC [AZ3146] + C[C@]1(O)C[C@@H](c2nc(-c3ccc4ccc(-c5ccccc5)nc4c3)c3c(N)nccn32)C1 [Linsitinib] (partner 1 µM)
Outline: as §1

Cell Line | relative viability ([1]; first compound 0.5 µM) | relative viability ([1]; first compound 1.581 µM) | relative viability ([1]; first compound 5 µM) | relative viability ([1]; first compound 15.81 µM) | relative viability ([1]; first compound 50 µM) | relative viability ([2]; first compound 0.08 µM) | relative viability ([2]; first compound 0.253 µM) | relative viability ([2]; first compound 0.8 µM) | relative viability ([2]; first compound 2.53 µM) | relative viability ([2]; first compound 8 µM) | relative viability ([3]; first compound 0.5 µM) | relative viability ([3]; first compound 1.581 µM) | relative viability ([3]; first compound 5 µM) | relative viability ([3]; first compound 15.81 µM) | relative viability ([3]; first compound 50 µM) | relative viability ([4]; first compound 0.08 µM) | relative viability ([4]; first compound 0.253 µM) | relative viability ([4]; first compound 0.8 µM) | relative viability ([4]; first compound 2.53 µM) | relative viability ([4]; first compound 8 µM)
NCI-H441 | 0.605 | 0.487 | 0.406 | 0.515 | 0.422 | 0.394 | 0.743 | 0.602 | 1.02 | 0.346 | 0.741 | 0.521 | 0.475 | 0.736 | 0.57 | 0.479 | 0.525 | 0.474 | 0.635 | 0.621
NCI-H596 | 0.668 | 0.726 | 0.734 | 0.738 | 0.586 | 0.961 | 1.05 |  | 1.07 | 0.935 | 0.479 | 0.503 | 0.525 | 0.457 | 0.477 | 1.1 | 1.01 | 1.01 | 1.04 | 1.1
NCI-H727 | 0.597 | 0.596 | 0.581 | 0.718 | 0.472 | 1.02 | 0.953 | 0.717 | 0.934 | 1.18 | 0.549 |  | 0.894 | 0.621 | 0.264 | 0.319 | 0.188 | 0.35 | 0.269 | 0.26
NCI-H838 | 0.696 | 0.653 | 0.514 | 0.568 | 0.411 | 0.908 | 0.832 | 0.882 | 0.738 | 0.302 | 1.02 | 0.927 |  | 0.962 | 0.905 | 0.921 | 1 | 0.97 | 0.971 | 0.79
NCI-H1792 | 0.45 | 0.286 | 0.309 | 0.429 | 0.341 | 0.784 | 1.04 | 1.05 | 0.976 | 1 | 0.708 | 0.664 | 0.734 | 0.575 | 0.837 | 0.436 | 0.551 | 0.523 | 0.6 | 0.65
NCI-H1355 | 0.732 | 0.672 | 0.762 | 0.677 | 0.503 | 1.09 | 1.19 | 1.17 | 1.25 | 1.28 | 0.761 | 0.741 | 0.857 | 0.762 | 0.757 | 0.774 | 0.854 | 0.825 | 0.864 | 0.885
HARA | 0.767 | 0.761 |  | 0.888 | 0.343 | 1.04 | 1.15 | 1.15 | 1.14 | 0.533 | 0.815 | 0.441 |  | 0.785 | 0.646 | 0.821 | 0.95 | 1.01 | 0.993 | 0.935
201T | 0.81 | 0.581 | 0.831 | 0.797 | 0.81 | 1.1 | 1.07 | 1.11 | 1.16 | 1.12 | 0.977 | 0.831 | 1.02 | 0.988 | 0.9 | 0.876 | 1.06 | 1.05 | 1.05 | 1.06
NCI-H23 | 0.25 | 0.299 | 0.292 | 0.344 | 0.285 | 1.15 | 1.08 | 1.21 | 1.11 | 0.876 | 0.781 |  | 0.892 | 0.605 | 0.604 | 0.584 | 0.563 | 0.616 | 0.656 | 0.605
LC-2-ad | 0.69 | 0.643 | 0.672 | 0.701 | 0.55 | 0.857 | 1.05 | 1.03 | 0.996 | 0.668 | 0.725 | 0.764 | 0.857 | 0.877 | 0.87 | 0.782 | 0.886 | 0.775 | 0.845 | 0.863
COR-L 105 | 0.701 |  | 0.641 | 0.672 | 0.764 | 0.677 | 0.896 | 0.78 | 0.554 | 0.294 | 1.11 | 0.99 | 1.07 | 0.912 | 1.16 | 0.963 | 1.2 | 0.891 | 0.888 | 0.787
NCI-H647 | 0.456 | 0.471 | 0.545 | 0.5 | 0.374 | 0.918 | 0.941 | 0.996 | 1.21 | 0.405 | 1.22 | 1.03 | 0.927 | 1.05 | 0.975 | 1.14 | 1.3 | 1.1 | 1.16 | 0.434
NCI-H1915 | 0.279 | 0.229 |  | 0.224 | 0.257 | 0.933 | 1.01 | 0.502 | 0.955 | 0.973 | 0.972 | 0.97 | 1.04 | 0.99 | 1.01 | 1.09 | 1.12 | 1.09 | 1.1 | 1.11
NCI-H2087 | 0.525 | 0.535 | 0.439 | 0.542 | 0.371 | 0.676 | 0.908 | 0.734 | 0.955 | 0.916 | 0.988 | 1.17 |  | 0.933 | 0.745 | 0.816 | 0.952 | 1.11 | 1.02 | 1
NCI-H2085 | 0.773 | 0.734 | 0.654 | 0.707 | 0.627 | 1 | 1.09 | 0.962 | 1.18 | 0.952 | 0.894 | 0.863 | 0.888 | 0.898 | 0.789 | 0.898 | 0.848 | 0.956 | 0.912 | 0.727
